Source: US7091311B2, “Peptides and compounds that bind to a receptor” (SmithKline Beecham Corporation, priority 1996, dated 2006)
“And” between values parts separate entries of the source, which are not always exact repeats. Equal entries are not always repeated. Where two headings read alike, the source gives them in different places. Values belong to the compound of their own block, whether it stands above or below them. Where a SMILES comes first, the peptide text is derived from it. Where no end group is shown, it is not given here.

Tests used:
TPO-R = molecular target: T1, TPO-R (Homo sapiens, UniProt P40238); assay: competition binding assay: MBP-TPO156 binding to immobilized TPO-R (ELISA)
T1 construct: made in house
T1 sequence (P40238 26-491 limits assumed): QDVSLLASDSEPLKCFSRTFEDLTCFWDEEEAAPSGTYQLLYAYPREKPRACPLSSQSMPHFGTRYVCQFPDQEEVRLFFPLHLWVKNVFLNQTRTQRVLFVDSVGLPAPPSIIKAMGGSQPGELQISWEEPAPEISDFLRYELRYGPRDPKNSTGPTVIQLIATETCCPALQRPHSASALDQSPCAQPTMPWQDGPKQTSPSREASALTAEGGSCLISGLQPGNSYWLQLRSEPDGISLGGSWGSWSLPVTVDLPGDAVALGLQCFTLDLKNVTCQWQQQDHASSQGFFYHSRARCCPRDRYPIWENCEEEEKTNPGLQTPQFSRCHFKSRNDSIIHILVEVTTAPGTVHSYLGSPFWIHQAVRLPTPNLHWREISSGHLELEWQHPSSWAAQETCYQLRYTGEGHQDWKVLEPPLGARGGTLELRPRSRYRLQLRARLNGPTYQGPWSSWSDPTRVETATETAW
Experimental: A variety of methods can be used to evaluate IC50 values. For example, an equilibrium binding ELISA assay, using either MBP-TPO or lacI-peptide tracer, was used to determine whether the peptides inhibit the binding of TPO to the extracellular domain of the TPO receptor. Typically, the IC50 value were determined using the free peptide. The IC50value can be determined using the free peptide, which optionally can be C-terminally amidated, or can be prepared as an ester or other carboxy amide.
Binding affinities of chemically synthesized peptides for TPO-R were measured in a competition binding assay. The wells of a microtiter plate were coated with 1 mg streptavidin, blocked with PBS/1% BSA, followed by 50 ng of biotinylated anti-receptor immobilizing antibody (Ab179). The wells were then treated with a 1:10 dilution of soluble TPO-R harvest. Various concentrations of peptide or peptide mimetic were mixed with a constant amount of a truncated form of TPO consisting of residues 1–156 fused to the C-terminus of maltose binding protein (MBP-TPO156). The peptide MBP-TPO156 mixtures were added to the TPO-R coated wells, incubated for 2 hours at 4° C. and then washed with PBS. The amount of MBP-TPO156 that was bound at equilibrium was measured by adding a rabbit anti-sera directed against MBP, followed by alkaline phosphatase conjugated goat anti-rabbit IgG. The amount of alkaline phosphatase in each well was then determined using standard methods.
The assay is conducted over a range of peptide concentrations and the results are graphed such that the y axis represents the amount of bound MBP-TPO156 and the x axis represents the concentration of peptide or peptide mimetic.

human TPO-R = molecular target: T2, human TPO-R (Homo sapiens, UniProt P40238); assay: thrombopoietin dependent cell proliferation assay, TPO-R transfected Ba/F3 cells (MTT); type: cell-based
T2 construct: transfected with full length human TPO-R; expressed in transfected cells; host or cells: murine Ba/F3 cells
T2 sequence (P40238 26-635): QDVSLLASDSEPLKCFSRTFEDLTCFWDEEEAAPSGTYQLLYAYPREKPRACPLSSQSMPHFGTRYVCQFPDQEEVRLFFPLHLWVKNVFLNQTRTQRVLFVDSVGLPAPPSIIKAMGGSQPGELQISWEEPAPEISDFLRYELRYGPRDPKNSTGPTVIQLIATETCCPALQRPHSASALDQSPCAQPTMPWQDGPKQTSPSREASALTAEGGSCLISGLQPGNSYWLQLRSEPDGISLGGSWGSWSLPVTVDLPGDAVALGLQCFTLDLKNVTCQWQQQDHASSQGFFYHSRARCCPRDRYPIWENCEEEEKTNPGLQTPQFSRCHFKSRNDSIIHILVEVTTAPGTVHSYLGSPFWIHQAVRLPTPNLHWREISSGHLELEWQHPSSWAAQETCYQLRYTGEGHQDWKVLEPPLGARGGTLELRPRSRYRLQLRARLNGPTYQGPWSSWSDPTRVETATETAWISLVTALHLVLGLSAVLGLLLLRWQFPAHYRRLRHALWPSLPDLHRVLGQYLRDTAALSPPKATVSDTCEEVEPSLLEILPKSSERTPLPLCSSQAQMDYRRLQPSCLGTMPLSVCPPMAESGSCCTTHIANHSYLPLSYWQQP
Experimental: Bioactivity of the peptides can be measured using a thrombopoietin dependent cell proliferation assay. Murine IL-3 dependent Ba/F3 cells were transfected with full length human TPO-R. In the absence of IL-3 (WEHI-3 conditioned media), these cells are dependent on TPO for proliferation.
The cells were grown in complete RPMI-10 media, containing 10% WEHI-3 conditioned media, then washed twice in PBS, resuspended in media which lacked WEHI-3 conditioned media, and added to wells containing dilutions of peptide or TPO at 2×10^4 cells/well. The cells were incubated for 48 hours at 37° C. in a humidified 5% Co2 atmosphere and metabolic activity was assayed by the reduction of MTT to formazan, with absorbance at 570 nm measured on an ELISA plate reader.

TPO receptor = molecular target: T3, TPO receptor (Homo sapiens, UniProt P40238); assay: microphysiometer assay: rate of acidification of the extracellular medium in response to TPO receptor stimulation; type: cell-based; conditions: Table 9; read-out: EC50 (nM) Microphys.
T3 sequence (P40238 26-635): T2 sequence (P40238 26-635)
Experimental: In this example cyclized compounds were subjected to three assays. […] Finally, a microphysiometer (Molecular Devices Corp.) assay was performed. […] The ranges for EC50 are symbolically indicated as for IC50 described above.

marrow cells [1] = assay: mouse marrow cells in liquid culture, AChE-staining megakaryocytes; type: cell-based, Balb/C mice
Experimental: To assess the feasibility of mice as a convenient test species, several in vitro experiments, designed to measure the activity of the test compounds on the mouse receptor, have been done. First, marrow cells, harvested from the femurs of 8 to 9 week one Balb/C mice, were incubated for 7 days in liquid culture with either rhuTPO or various concentrations of the test peptides. At the end of the incubation period, the cultures were concentrated by Cytospin, stained for acetylcholinesterase (AChE, a diagnostic of mouse megakaryocytes), and counted by microscopic analysis. One (1) nM rhuTPO gave rise to the outgrowth of very large (>40 um) non-adherent cells that stain for AChE. These cells appear to be mature megakaryocytes. From an initial seeding of 10^6 total marrow cells/ml (in 50 ml cultures) an estimated 1 to 2×10^6 megakaryocytes developed. This response to TPO was designated as “maximal”. Control cultures containing no added growth factors produced very few AChE-positive cells. […] This finding was the first evidence that this peptide family is active on the murine receptor. In a second experiment, marrow cells were harvested and cultured in semi-solid medium (methylcellulose) containing either no factors, 1 nM rhuTPO, or 10 uM Peptide A. After 7 days in culture, colonies of large cell (presumed to be megakaryocytes) were counted and grouped into small colonies (3–5 cells) or large colonies (greater than 6 cells). TPO and the test peptides both produced substantially more colonies of both sized than did the negative control cultures.

marrow cells [2] = assay: marrow cells in semi-solid medium (methylcellulose), colonies of large cells; type: cell-based, Balb/C mice; conditions: 1 nM TPO; 7 days in methylcellulose; replicate cultures
Experimental: To assess the feasibility of mice as a convenient test species, several in vitro experiments, designed to measure the activity of the test compounds on the mouse receptor, have been done. First, marrow cells, harvested from the femurs of 8 to 9 week one Balb/C mice, were incubated for 7 days in liquid culture with either rhuTPO or various concentrations of the test peptides. At the end of the incubation period, the cultures were concentrated by Cytospin, stained for acetylcholinesterase (AChE, a diagnostic of mouse megakaryocytes), and counted by microscopic analysis. One (1) nM rhuTPO gave rise to the outgrowth of very large (>40 um) non-adherent cells that stain for AChE. These cells appear to be mature megakaryocytes. From an initial seeding of 10^6 total marrow cells/ml (in 50 ml cultures) an estimated 1 to 2×10^6 megakaryocytes developed. This response to TPO was designated as “maximal”. Control cultures containing no added growth factors produced very few AChE-positive cells. […] In a second experiment, marrow cells were harvested and cultured in semi-solid medium (methylcellulose) containing either no factors, 1 nM rhuTPO, or 10 uM Peptide A. After 7 days in culture, colonies of large cell (presumed to be megakaryocytes) were counted and grouped into small colonies (3–5 cells) or large colonies (greater than 6 cells). […]

[3] = Table 9, read-out: EC50 (nM) Prolif.
[4] = Table 3, free peptide, read-out: Affinity (IC50)

EC50 (human TPO-R; [3]): ≤ 500 nM
Compound: CC[C@H](C)[C@@H]1NC(=O)[C@@H](N)CSSC[C@@H](C(N)=O)NC(=O)[C@H](C)NC(=O)[C@H](CCCNC(=N)N)NC(=O)[C@H](C)NC(=O)[C@H](C)NC(=O)[C@H](CC(C)C)NC(=O)[C@H](Cc2c[nH]c3ccccc23)NC(=O)[C@H](CCC(N)=O)NC(=O)[C@H](CCCNC(=N)N)NC(=O)[C@H](CC(C)C)NC(=O)[C@H]([C@@H](C)O)NC(=O)[C@@H]2CCCN2C(=O)CNC(=O)[C@H](CCC(=O)O)NC1=O (HELM PEPTIDE1{C.I.E.G.P.T.L.R.Q.W.L.A.A.R.A.C.[am]}$PEPTIDE1,PEPTIDE1,1:R3-16:R3$$$V2.0)

IC50 (TPO-R; Table 6, read-out: IC50): ≤ 0.5 µM
Compound: CC[C@@H]1NC(=O)[C@H]([C@@H](C)CC)NC(=O)[C@H](Cc2c[nH]c3ccccc23)NC(=O)[C@H](CCC(=O)O)NC(=O)[C@H](CCCNC(=N)N)NC(=O)[C@H](CC(C)C)NC(=O)[C@H]([C@@H](C)O)NC(=O)[C@@H]2CCCN2C(=O)CNC(=O)[C@H](CC(=O)O)NC(=O)[C@H](C)NC(=O)CSC[C@@H](C(N)=O)NC(=O)[C@H](C(c2ccccc2)c2ccccc2)NC1=O [S,F - Abu, DiPh-Ala] (HELM PEPTIDE1{[O=C(C[*:3])[*:2]].A.D.G.P.T.L.R.E.W.I.[Abu].[O=C([C@@H](N[*:1])C(c1ccccc1)c1ccccc1)[*:2]].C.[am]}$PEPTIDE1,PEPTIDE1,1:R3-14:R3$$$V2.0; C-terminus assumed)

IC50 (TPO-R; [4]): ≤ 0.5 µM
Compound: SIEGPTLREWLTSRTPHS [S I E G P T L R E W L T S R T P H S]

IC50 (TPO-R; [4]): ≤ 0.5 µM
Compound: TIKGPTLRQWLKSREHTS [T I K G P T L R Q W L K S R E H T S]

Second part, the compound before the results:

Compound: CC[C@H](C)[C@H](N)C(=O)N[C@@H](CCC(=O)O)C(=O)NCC(=O)N1CCC[C@H]1C(=O)N[C@H](C(=O)N[C@@H](CC(C)C)C(=O)N[C@@H](CCCNC(=N)N)C(=O)N[C@@H](CCC(N)=O)C(=O)N[C@@H](Cc1c[nH]c2ccccc12)C(=O)N[C@@H](CC(C)C)C(=O)N[C@@H](C)C(=O)N[C@@H](C)C(=O)N[C@@H](CCCNC(=N)N)C(=O)N[C@@H](C)C(=O)NCCCC[C@H](NC(=O)CCNC(=O)[C@H](C)NC(=O)[C@H](CCCNC(=N)N)NC(=O)[C@H](C)NC(=O)[C@H](C)NC(=O)[C@H](CC(C)C)NC(=O)[C@H](Cc1c[nH]c2ccccc12)NC(=O)[C@H](CCC(N)=O)NC(=O)[C@H](CCCNC(=N)N)NC(=O)[C@H](CC(C)C)NC(=O)[C@@H](NC(=O)[C@@H]1CCCN1C(=O)CNC(=O)[C@H](CCC(=O)O)NC(=O)[C@@H](N)[C@@H](C)CC)[C@@H](C)O)C(N)=O)[C@@H](C)O
IC50 (TPO-R; Table 7, dimer compounds, read-out: IC50): ≤ 0.5 µM
IC50 (TPO-R; Table 9, read-out: IC50): ≤ 0.5 µM
EC50 (human TPO-R; [3]): ≤ 500 nM
EC50 (human TPO-R; Table 10, value outside parentheses, read-out: EC50 (nM) Cell Prolif.): ≤ 500 nM
EC50 (TPO receptor): ≤ 500 nM

Compound: CC[C@H](C)[C@@H]1NC(=O)[C@H](Cc2c[nH]c3ccccc23)NC(=O)[C@H](CCC(=O)O)NC(=O)[C@H](CCCNC(=N)N)NC(=O)[C@H](CC(C)C)NC(=O)[C@H]([C@@H](C)O)NC(=O)[C@@H]2CCCN2C(=O)CNC(=O)[C@H](CC(=O)O)NC(=O)[C@H](C)NC(=O)CSC[C@@H](C(N)=O)NC(=O)[C@H](C(c2ccccc2)c2ccccc2)NC(=O)[C@H](CO)NC1=O [F - DiPh-Ala] (HELM PEPTIDE1{[O=C(C[*:3])[*:2]].A.D.G.P.T.L.R.E.W.I.S.[O=C([C@@H](N[*:1])C(c1ccccc1)c1ccccc1)[*:2]].C.[am]}$PEPTIDE1,PEPTIDE1,1:R3-14:R3$$$V2.0; C-terminus assumed)
IC50 (TPO-R; Table 6, read-out: IC50): ≤ 0.5 µM

Compound: AF 12885 with streptavidin (SA): complexed biotinylated peptide: G G C A D G P T L R E W I S F C G G K (Biotin) preincubated with streptavidin, 4:1 molar ratio
potency of pre-formed streptavidin complex relative to the free peptide (human TPO-R; peptide preincubated with streptavidin at 4:1 molar ratio, FIG. 2): approximately 10 times

Compound: GNADGPTLRQWLEGRRPKN [G N A D G P T L R Q W L E G R R P K N]
IC50 (TPO-R; [4]): ≤ 0.5 µM

Compound: GPTLRQWL [G P T L R Q W L]
IC50 (TPO-R; [4]): > 200 µM

Compound: H-IEGPTLRQWLAARA-NH2
IC50 (TPO-R; Table 9, read-out: IC50): ≤ 0.5 µM
EC50 (human TPO-R; [3]): ≤ 500 nM

Compound: LAIEGPTLRQWLHGNGRDT [L A I E G P T L R Q W L H G N G R D T]
IC50 (TPO-R; [4]): ≤ 0.5 µM

Compound: S.A. alone: streptavidin alone [reference compound]
Response (AChE-staining megakaryocytes) (marrow cells [1]; concentration tested 1000 nM (putative 1:4 complex), 7 days, maximal = compared to recombinant human TPO, 25–30% ACE staining cells): none

Compound: TPO (R & D): recombinant human TPO
megakaryocytes developed (estimated) (marrow cells [1]; 1 nM rhuTPO, initial seeding 10^6 total marrow cells/ml in 50 ml cultures, 7 days): 1 to 2×10^6
Response (AChE-staining megakaryocytes) (marrow cells [1]; concentration tested 1 nM, 7 days liquid culture): “maximal”
large colonies, 6–12 large cells (marrow cells [2]): 6 and 1 and 8 and 3
small colonies, 3–5 large cells (marrow cells [2]): 15 and 12 and 16 and 13
